Results taken from the NIST ThermoML archive (doi:10.1021/je030163d).
Numbers after ± are expanded uncertainties.

Assays:
[1] = 101.3 kPa, Liquid; for viscosity: Capillary tube (Ostwald / Ubbelohde) method; for mass density: Pycnometric method
[2] = xn = mol fraction of the nth substance listed; conditions: 101.3 kPa, Liquid, x1 = 1; for viscosity: Capillary tube (Ostwald / Ubbelohde) method; for mass density: Pycnometric method

| SMILES | viscosity ([1]; 298.15 K) | mass density ([1]; 298.15 K) | viscosity ([1]; 303.15 K) | mass density ([1]; 303.15 K) | viscosity ([1]; 308.15 K) | mass density ([1]; 308.15 K) | viscosity ([1]; 313.15 K) | mass density ([1]; 313.15 K) | viscosity ([2]; 298.15 K) | mass density ([2]; 298.15 K) | viscosity ([2]; 303.15 K) | mass density ([2]; 303.15 K) | viscosity ([2]; 308.15 K) | mass density ([2]; 308.15 K) | viscosity ([2]; 313.15 K) | mass density ([2]; 313.15 K) |
| --- | --- | --- | --- | --- | --- | --- | --- | --- | --- | --- | --- | --- | --- | --- | --- | --- |
| CC(=O)c1ccccc1 [acetophenone] | 1.68 ± 0.013 mPa·s | 1024.1 ± 0.6 kg/m3 | 1.54 ± 0.012 mPa·s | 1019.9 ± 0.6 kg/m3 | 1.41 ± 0.011 mPa·s | 1015.7 ± 0.6 kg/m3 | 1.31 ± 0.01 mPa·s | 1011.2 ± 0.6 kg/m3 |  |  |  |  |  |  |  |  |
| OCc1ccccc1 [benzenemethanol] | 5.16 ± 0.031 mPa·s | 1041.3 ± 0.4 kg/m3 | 4.67 ± 0.028 mPa·s | 1037.5 ± 0.4 kg/m3 | 4.004 ± 0.024 mPa·s | 1033.7 ± 0.4 kg/m3 | 3.52 ± 0.021 mPa·s | 1029.4 ± 0.4 kg/m3 |  |  |  |  |  |  |  |  |
| CN(C)C=O [dimethylformamide] | 0.803 ± 0.006 mPa·s | 944.5 ± 0.3 kg/m3 | 0.756 ± 0.006 mPa·s | 939.8 ± 0.3 kg/m3 | 0.71 ± 0.005 mPa·s | 935.1 ± 0.3 kg/m3 | 0.673 ± 0.005 mPa·s | 930.2 ± 0.4 kg/m3 |  |  |  |  |  |  |  |  |

Other lines, results leading:

| viscosity ([1]; 298.15 K) | mass density ([1]; 298.15 K) | viscosity ([1]; 303.15 K) | mass density ([1]; 303.15 K) | viscosity ([1]; 308.15 K) | mass density ([1]; 308.15 K) | viscosity ([1]; 313.15 K) | mass density ([1]; 313.15 K) | viscosity ([2]; 298.15 K) | mass density ([2]; 298.15 K) | viscosity ([2]; 303.15 K) | mass density ([2]; 303.15 K) | viscosity ([2]; 308.15 K) | mass density ([2]; 308.15 K) | viscosity ([2]; 313.15 K) | mass density ([2]; 313.15 K) | SMILES |
| --- | --- | --- | --- | --- | --- | --- | --- | --- | --- | --- | --- | --- | --- | --- | --- | --- |
|  |  |  |  |  |  |  |  | 0.803 ± 0.006 mPa·s | 944.5 ± 0.3 kg/m3 | 0.756 ± 0.006 mPa·s | 939.8 ± 0.3 kg/m3 | 0.71 ± 0.005 mPa·s | 935.1 ± 0.3 kg/m3 | 0.673 ± 0.005 mPa·s | 930.2 ± 0.4 kg/m3 | CN(C)C=O [dimethylformamide] + CC(=O)c1ccccc1 |
|  |  |  |  |  |  |  |  | 0.803 ± 0.006 mPa·s | 944.5 ± 0.3 kg/m3 | 0.756 ± 0.006 mPa·s | 939.8 ± 0.3 kg/m3 | 0.71 ± 0.005 mPa·s | 935.1 ± 0.3 kg/m3 | 0.673 ± 0.005 mPa·s | 930.2 ± 0.4 kg/m3 | CN(C)C=O [dimethylformamide] + OCc1ccccc1 |
